# Results reported in patent US8623853B2, “Treatment of cancers characterized by chromosomal rearrangement of the NUT gene” (The Brigham and Women's Hospital, Inc., priority 2008, dated 2014).
# Legend:
# NMC cells = experiment: TSA dose- and time-ranging studies in cultured NMC cells (immunofluorescence, bright-field microscopy, keratin immunohistochemistry); assay type: cell-based
# Procedure: Studies aimed at testing the hypothesis of HDAC inhibitor therapy in NMC have been conducted using trichostatin A (TSA), and vorinostat (SAHA, Zolinza®). Both of these compounds are regarded as non-selective for class I and II deacetylases and bind HDAC proteins by chelating the active site zinc atom with a hydroxamic acid feature. NMC cells cultured in vitro were treated with TSA in dose- and time-ranging studies. […] With further drug exposure, a differentiation phenotype was observed by bright-field microscopy and by immunohistochemistry for the epithelial differentiation-associated protein, keratin.
# [1] = pharmacologically achievable range; cited from earlier work
# NMC (TC797) cells = experiment: High-content 384-well assay of proliferation, histone acetylation and keratin expression adapted to NMC culture; assay type: cell-based
# Procedure: A cell based approach was developed for identifying potent and selective HDAC inhibitors. Nuclear acetylation correlates with inhibition of class I deacetylases such as HDAC1 and HDAC2. An automated epiflourescent assay was therefore developed which is measures histone hyperacetylation. Cells were seeded in 384-well plate format (500 cells/well) and treated with compound. They were then fixed and stained with: a) Hoechst (nuclei); b) primary anti-AcHistone polyclonal Ab; c) anti-Keratin monoclonal antibody; and d) compatible flurophore-conjugated secondary antibodies. After automated image acquisition, a custom analysis program was applied that identifies and masks cells based on nuclear intensity (Hoechst) and then derives quantitative fluorescent data from the FITC (AcHistone) image. Subsequent secondary masks were generated using cytosolic intensity.
# We have performed studies of HDAC inhibitor effects on NMC cells in culture using an adaptation of the assay described above. […] In a first attempt at multiplexed detection and quantification of effects on cell proliferation, histone acetylation, and keratin protein expression, we have witnessed clear, dose-response activity of SAHA in the pharmacologically achievable range (Cmax approximately 2 μM).
# NMC cell lines = experiment: SAHA treatment of five NMC cell lines; assay type: cell-based; conditions: pharmacologic doses
SMILES,"differentiation by brightfield microscopy (NMC cells; TSA 25 nM, within 24 hours)",distribution of BRD-NUT and acetylation marks (NMC cells; immunofluorescence microscopy),"histone acetylation (NMC cells; immunofluorescence microscopy, dose- and time-ranging)",cytoplasmic keratin staining (NMC cells; immunohistochemistry),Cmax [1],"histone acetylation (NMC (TC797) cells; dose-ranging, qualitative in images)",cell proliferation (NMC (TC797) cells; multiplexed detection),keratin protein content (NMC (TC797) cells; multiplexed detection),differentiation (NMC cell lines),growth (NMC cell lines)
"CC(/C=C/C(=O)NO)=C\[C@@H](C)C(=O)c1ccc(N(C)C)cc1 [TSA, trichostatin A]",rapidly differentiate,redistribution of both BRD-NUT and acetylation marks from nuclear speckles to a diffuse pattern,increase in histone acetylation with increasing dose and time of exposure,increases in cytoplasmic keratin staining,–,–,–,–,–,–
"O=C(CCCCCCC(=O)Nc1ccccc1)NO [SAHA, suberoylanilide hydroxamic acid]",–,–,–,–,~2000 nM,increased histone acetylation,reduction in cell proliferation,induction of increased keratin protein content,resulted in differentiation,arrested growth
